Assay results published in US12043600B2, “Microbiocidal compounds” (SYNGENTA CROP PROTECTION AG, priority 2018, dated 2024).

Columns and labels:
[1] = system: Botryotinia fuckeliana (Botrytis cinerea); assay: Botryotinia fuckeliana (Botrytis cinerea)/Liquid Culture (Gray Mould); type: cell-based; conditions: liquid culture, compared to untreated control
Description: Conidia of the fungus from cryogenic storage are directly mixed into nutrient broth (Vogels broth). After placing a (DMSO) solution of test compound into a microtiter plate (96-well format), the nutrient broth containing the fungal spores is added.

[2] = system: Glomerella lagenarium (Colletotrichum lagenarium); assay: Glomerella lagenarium (Colletotrichum lagenarium)/Liquid Culture (Anthracnose); type: cell-based; conditions: Colletotrichum orbiculare, liquid culture, compared to untreated control
[3] = system: Monographella nivalis (Microdochium nivale); assay: Monographella nivalis (Microdochium nivale)/Liquid Culture (Foot Rot Cereals); type: cell-based; conditions: liquid culture, compared to untreated control
How it was run: (§1)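 Liquid-culture format using potato dextrose broth inoculated directly with cryopreserved conidia, dosed with compound from a DMSO solution.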

[4] = system: Mycosphaerella arachidis (Cercospora arachidicola); assay: Mycosphaerella arachidis (Cercospora arachidicola)/Liquid Culture (Early Leaf Spot); type: cell-based; conditions: liquid culture, compared to untreated control
How it was run: as §1

[5] = system: Phytophthora infestans; assay: whole plant or invertebrate; type: in vivo; conditions: in Solanum lycopersicum, foliar, read-out: control of Phytophthora infestans
[6] = system: Plasmopara viticola; assay: whole plant or invertebrate; type: in vivo; conditions: foliar, read-out: control of Plasmopara viticola
[7] = system: Puccinia recondita f. sp. tritici; assay: Puccinia recondita f. sp. tritici/Wheat/Leaf Disc Curative (Brown Rust); type: in vivo; conditions: foliar, wheat leaf disc curative, compared to untreated control
How it was run: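 Formulated compound, diluted in water, is applied to inoculated wheat cv. Kanzler leaf segments on agar one day post-inoculation (pre-incubation dark, 19° C, 75% rh). After 6-8 days at 19° C, 75% rh and 12 h/12 h light, activity is rated as percent disease control relative to untreated segments.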

[8] = system: Puccinia recondita f. sp. tritici; assay: Puccinia recondita f. sp. tritici/Wheat/Leaf Disc Preventative (Brown Rust); type: in vivo; conditions: foliar, 200 ppm, wheat leaf disc preventative, compared to untreated control, read-out: control of Puccinia recondita f. sp. tritici
[9] = system: Magnaporthe grisea (Pyricularia oryzae); assay: whole plant or invertebrate; type: in vivo; conditions: foliar, read-out: control of Magnaporthe grisea
[10] = system: Thanatephorus cucumeris (Rhizoctonia solani); assay: Thanatephorus cucumeris (Rhizoctonia solani)/Liquid Culture (Foot Rot, Damping-Off); type: cell-based; conditions: liquid culture, compared to untreated control
Description: Mycelia fragments of a newly grown liquid culture of the fungus are directly mixed into nutrient broth (PDB potato dextrose broth). After placing a (DMSO) solution of the test compounds into a microtiter plate (96-well format), the nutrient broth containing the fungal material is added.

[11] = system: Mycosphaerella graminicola (Septoria tritici); assay: Mycosphaerella graminicola (Septoria tritici)/Liquid Culture (Septoria Blotch); type: cell-based; conditions: Zymoseptoria tritici; 20 ppm; liquid culture; compared to untreated control
How it was run: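 Results given as % disease control: test compound in DMSO was placed in wells first, then potato dextrose broth carrying cryostored fungal conidia was added.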

[12] = system: Blumeria graminis f. sp. tritici (Erysiphe graminis f. sp. tritici); assay: Blumeria graminis f. sp. tritici/Wheat/Leaf Disc Preventative (Powdery Mildew on Wheat); type: in vivo; conditions: foliar, wheat leaf disc preventative, compared to untreated control
How it was run: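 Preventative leaf-disc test: percent disease control versus untreated leaf segments read 6-8 days post-application. Compound spray applied to wheat cv. Kanzler segments on agar one day before shaking infected plants over them; incubation at 20° C and 60% rh, 24 h darkness then 12 h light/12 h dark cycles.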

[13] = system: Phaeosphaeria nodorum (Septoria nodorum); assay: Phaeosphaeria nodorum (Septoria nodorum)/Wheat/Leaf Disc Preventative (Glume Blotch); type: in vivo; conditions: Parastagonospora nodorum, foliar, wheat leaf disc preventative, compared to untreated control
How it was run: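 Preventative test: compound spray first, then spore inoculation after 2 days on cv. Kanzler wheat leaf segments. Incubation in a climate cabinet at 20 °C and 75% rh under a 12 h light/12 h dark cycle. Activity rated as % control relative to untreated discs at 5–7 days post-application.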

[14] = system: Phakopsora pachyrhizi; assay: Phakopsora pachyrhizi/Soybean/Preventative (Soybean Rust); type: in vivo; conditions: foliar, 288 h, 200 ppm, soybean leaf disc preventative, compared to untreated control, read-out: control of Phakopsora pachyrhizi

## CO/C=C(\Oc1cc(-n2cc(F)c(C(C)C)n2)ccc1C)C(=O)OC [Compound E-46, methyl (Z)-2-[5-(4-fluoro-3-isopropyl-pyrazol-1-yl)-2-methyl-phenoxy]-3-methoxy-prop-2-enoate]
[1]
  inhibition of growth at 20 ppm: ≥ 80%
[2]
  inhibition of growth at 20 ppm: ≥ 80%
[3]
  inhibition of growth at 20 ppm: ≥ 80%
[4]
  inhibition of growth at 20 ppm: ≥ 80%
[5]
  pest or weed control at 200 ppm: ≥ 80%
[6]
  pest or weed control at 200 ppm: ≥ 80%
[7]
  pest or weed control at 200 ppm: ≥ 80%
[8]
  pest or weed control at 200 ppm: ≥ 80%
[9]
  pest or weed control at 200 ppm: ≥ 80%
[10]
  inhibition of growth at 20 ppm: ≥ 80%
[11]
  inhibition of growth at 20 ppm: ≥ 80%
other
  melting point: 111 to 113 °C

## CO/C=C(\Oc1cc(-n2ccc(C(F)(F)F)n2)c(OC)cc1C)C(=O)OC [Compound E-32, methyl (Z)-3-methoxy-2-[4-methoxy-2-methyl-5-[3-(trifluoromethyl)pyrazol-1-yl]phenoxy]prop-2-enoate]
[1]
  inhibition of growth at 20 ppm: ≥ 80%
[2]
  inhibition of growth at 20 ppm: ≥ 80%
[12]
  pest or weed control at 200 ppm: ≥ 80%
[13]
  pest or weed control at 200 ppm: ≥ 80%
[3]
  inhibition of growth at 20 ppm: ≥ 80%
[4]
  inhibition of growth at 20 ppm: ≥ 80%
[5]
  pest or weed control at 200 ppm: ≥ 80%
[6]
  pest or weed control at 200 ppm: ≥ 80%
[7]
  pest or weed control at 200 ppm: ≥ 80%
[8]
  pest or weed control at 200 ppm: ≥ 80%
[9]
  pest or weed control at 200 ppm: ≥ 80%
[10]
  inhibition of growth at 20 ppm: ≥ 80%
[11]
  inhibition of growth at 20 ppm: ≥ 80%
other
  melting point: 130 to 133 °C

## CO/C=C(\Oc1cc(-n2cc(SC(C)C)cn2)ccc1C)C(=O)OC [Compound E-53, methyl (Z)-2-[5-(4-isopropylsulfanylpyrazol-1-yl)-2-methyl-phenoxy]-3-methoxy-prop-2-enoate]
[1]
  inhibition of growth at 20 ppm: ≥ 80%
[2]
  inhibition of growth at 20 ppm: ≥ 80%
[13]
  pest or weed control at 200 ppm: ≥ 80%
[3]
  inhibition of growth at 20 ppm: ≥ 80%
[4]
  inhibition of growth at 20 ppm: ≥ 80%
[5]
  pest or weed control at 200 ppm: ≥ 80%
[6]
  pest or weed control at 200 ppm: ≥ 80%
[8]
  pest or weed control at 200 ppm: ≥ 80%
[9]
  pest or weed control at 200 ppm: ≥ 80%
[10]
  inhibition of growth at 20 ppm: ≥ 80%
[11]
  inhibition of growth at 20 ppm: ≥ 80%

## CO/C=C(\Oc1cc(-n2cc(C3CC3)cn2)ccc1C)C(=O)OC [Compound E-50, methyl (Z)-2-[5-(4-cyclopropylpyrazol-1-yl)-2-methyl-phenoxy]-3-methoxy-prop-2-enoate]
[1]
  inhibition of growth at 20 ppm: ≥ 80%
[2]
  inhibition of growth at 20 ppm: ≥ 80%
[12]
  pest or weed control at 200 ppm: ≥ 80%
[13]
  pest or weed control at 200 ppm: ≥ 80%
[3]
  inhibition of growth at 20 ppm: ≥ 80%
[4]
  inhibition of growth at 20 ppm: ≥ 80%
[14]
  pest or weed control at 200 ppm: ≥ 50%
[5]
  pest or weed control at 200 ppm: ≥ 80%
[6]
  pest or weed control at 200 ppm: ≥ 80%
[8]
  pest or weed control at 200 ppm: ≥ 80%
[9]
  pest or weed control at 200 ppm: ≥ 80%
[10]
  inhibition of growth at 20 ppm: ≥ 80%
[11]
  inhibition of growth at 20 ppm: ≥ 80%

## C/C=C(\C)c1ccn(-c2ccc(C)c(O/C(=C\OC)C(=O)OC)c2)n1 [Compound E-43, methyl (Z)-3-methoxy-2-[2-methyl-5-[3-[(E)-1-methylprop-1-enyl]pyrazol-1-yl]phenoxy]prop-2-enoate]
[1]
  inhibition of growth at 20 ppm: ≥ 80%
[2]
  inhibition of growth at 20 ppm: ≥ 80%
[3]
  inhibition of growth at 20 ppm: ≥ 80%
[4]
  inhibition of growth at 20 ppm: ≥ 80%
[5]
  pest or weed control at 200 ppm: ≥ 80%
[6]
  pest or weed control at 200 ppm: ≥ 80%
[7]
  pest or weed control at 200 ppm: ≥ 80%
[8]
  pest or weed control at 200 ppm: ≥ 80%
[9]
  pest or weed control at 200 ppm: ≥ 80%
[10]
  inhibition of growth at 20 ppm: ≥ 80%
[11]
  inhibition of growth at 20 ppm: ≥ 80%
other
  melting point: 115 to 118 °C
